Results published in US12077503B2, “Substituted cyclic amides and their use as herbicides” (FMC CORPORATION, priority 2015, dated 2024).

What was measured:
Assay type in all cases: in vivo
[1] = system: Galium (catchweed bedstraw, Galium aparine); assay: Test A postemergence
Outline: (§1)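 Each rating is a visual injury score from 0 to 100 given about 10 d after treatment, judged against untreated controls kept alongside in the greenhouse. In loam soil–sand blend, seeds got a preemergence directed soil spray, while postemergence plants were 2 to 10 cm tall at spraying.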

[2] = system: wheat (Triticum aestivum); assay: Test A postemergence
Outline: as §1

[3] = system: ragweed (common ragweed, Ambrosia elatior); assay: Test A postemergence
Outline: as §1

[4] = system: blackgrass (Alopecurus myosuroides); assay: Test A postemergence
Outline: as §1

[5] = system: barnyardgrass (Echinochloa crus-galli); assay: Test A postemergence
Outline: as §1

Kochia (Kochia scoparia) [6] = assay: Test A postemergence
Outline: as §1

[7] = system: ryegrass, Italian (Italian ryegrass, Lolium multiflorum); assay: Test A postemergence
Outline: as §1

[8] = system: giant foxtail (Setaria faberii); assay: Test A postemergence
Outline: as §1

[9] = system: pigweed (Amaranthus retroflexus); assay: Test A postemergence
Outline: as §1

corn (Zea mays) = assay: Test A postemergence
Outline: as §1

[10] = system: ragweed (common ragweed, Ambrosia elatior); assay: Test A preemergence
Outline: as §1

[11] = system: barnyardgrass (Echinochloa crus-galli); assay: Test A preemergence
Outline: as §1

Kochia (Kochia scoparia) [12] = assay: Test A preemergence
Outline: as §1

[13] = system: ryegrass, Italian (Italian ryegrass, Lolium multiflorum); assay: Test A preemergence
Outline: as §1

[14] = system: giant foxtail (Setaria faberii); assay: Test A preemergence
Outline: as §1

[15] = system: pigweed (Amaranthus retroflexus); assay: Test A preemergence
[16] = system: ducksalad (Heteranthera limosa); assay: Test B flooded paddy test; conditions: 250 g ai/ha, Flood, 0 to 100 scale where 0 is no effect and 100 is complete control
Outline: (§2)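 Compound goes directly into floodwater once pots are flooded 3 cm above soil, targeting plants at two leaves; the water depth is then held for the test duration. Plants sit 13–15 d in a greenhouse and are rated visually, 100 denoting complete control.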

[17] = system: sedge, umbrella (small-flower umbrella sedge, Cyperus difformis); assay: Test B flooded paddy test; conditions: 250 g ai/ha, Flood, 0 to 100 scale where 0 is no effect and 100 is complete control
Outline: as §2

rice (Oryra sativa) = assay: Test B flooded paddy test; conditions: 250 g ai/ha, Flood, 0 to 100 scale where 0 is no effect and 100 is complete control
Outline: as §2

[18] = system: barnyardgrass (Echinochloa crus-galli); assay: Test B flooded paddy test; conditions: 250 g ai/ha, Flood, 0 to 100 scale where 0 is no effect and 100 is complete control
Outline: as §2

[19] = 125 g ai/ha, postemergence, visual rating after approx. 10 d, 0 to 100 scale (0 no effect, 100 complete control)
[20] = Postemergence, 500 g ai/ha, 0 to 100 scale where 0 is no effect and 100 is complete control
[21] = 125 g ai/ha, Preemergence, visual injury after approximately 10 d, 0 to 100 scale where 0 is no effect and 100 is complete control
[22] = 500 g ai/ha, preemergence, 0 to 100 scale, 0 = no effect, 100 = complete control

`CON1CC[C@H](c2cccc(C(F)(F)F)c2)[C@@H](C(=O)Nc2ccccc2C(F)(F)F)C1=O` [Compound 1172] was tested, and the pest or weed control at 125 g/ha ([1]; Galium, post-emergence, 240 h, 125 g ai/ha, postemergence, visual injury vs untreated controls after approx. 10 d, 0 = no effect, 100 = complete control, read-out: Galium plant response rating (0 to 100 scale)) was 0%, the pest or weed control at 31 g/ha ([1]; Galium, post-emergence, 240 h, Postemergence, 31 g ai/ha, visual injury after approx. 10 d, 0 to 100 scale, 0 no effect, 100 complete control, read-out: Plant response rating, Galium) was 0% and the plant injury at 125 g/ha ([2]; Triticum aestivum, post-emergence, 240 h, 125 g ai/ha, postemergence, visual injury vs untreated controls after approx. 10 d, 0 = no effect, 100 = complete control, read-out: Wheat plant response rating (0 to 100 scale)) was 0%. The pest or weed control at 125 g/ha ([3]; Ambrosia artemisiifolia, post-emergence, 240 h, 125 g ai/ha, postemergence, visual injury vs untreated controls after approx. 10 d, 0 = no effect, 100 = complete control, read-out: Ragweed plant response rating (0 to 100 scale)) was 0%, the pest or weed control at 125 g/ha ([4]; Alopecurus myosuroides, post-emergence, 240 h, 125 g ai/ha, postemergence, visual injury vs untreated controls after approx. 10 d, 0 = no effect, 100 = complete control, read-out: Blackgrass plant response rating (0 to 100 scale)) was 0% and the pest or weed control at 31 g/ha ([4]; Alopecurus myosuroides, post-emergence, 240 h, Postemergence, 31 g ai/ha, visual injury after approx. 10 d, 0 to 100 scale, 0 no effect, 100 complete control, read-out: Plant response rating, Blackgrass) was 0%. It also gave a pest or weed control at 125 g/ha ([5]; Echinochloa crus-galli, post-emergence, 240 h, 125 g ai/ha, postemergence, visual injury vs untreated controls after approx. 10 d, 0 = no effect, 100 = complete control, read-out: Barnyardgrass plant response rating (0 to 100 scale)) of 0%, a pest or weed control at 31 g/ha ([5]; Echinochloa crus-galli, post-emergence, 240 h, Postemergence, 31 g ai/ha, visual injury after approx. 10 d, 0 to 100 scale, 0 no effect, 100 complete control, read-out: Plant response rating, Barnyardgrass) of 0% and a pest or weed control at 125 g/ha (Kochia (Kochia scoparia) [6]; Bassia scoparia, post-emergence, 240 h, 125 g ai/ha, postemergence, visual injury vs untreated controls after approx. 10 d, 0 = no effect, 100 = complete control, read-out: Kochia plant response rating (0 to 100 scale)) of 0%. It also gave a pest or weed control at 31 g/ha (Kochia (Kochia scoparia) [6]; Bassia scoparia, post-emergence, 240 h, Postemergence, 31 g ai/ha, visual injury after approx. 10 d, 0 to 100 scale, 0 no effect, 100 complete control, read-out: Plant response rating, Kochia) of 0%, a pest or weed control at 125 g/ha ([7]; Lolium multiflorum, post-emergence, 240 h, 125 g ai/ha, postemergence, visual injury vs untreated controls after approx. 10 d, 0 = no effect, 100 = complete control, read-out: Ryegrass, Italian plant response rating (0 to 100 scale)) of 0% and a pest or weed control at 125 g/ha ([8]; Setaria faberi, post-emergence, 240 h, 125 g ai/ha, postemergence, visual injury vs untreated controls after approx. 10 d, 0 = no effect, 100 = complete control, read-out: Foxtail, Giant plant response rating (0 to 100 scale)) of 0%. For the same molecule, the pest or weed control at 31 g/ha ([8]; Setaria faberi, post-emergence, 240 h, Postemergence, 31 g ai/ha, visual injury after approx. 10 d, 0 to 100 scale, 0 no effect, 100 complete control, read-out: Plant response rating, Foxtail, Giant) was 0%, the pest or weed control at 125 g/ha ([9]; Amaranthus retroflexus, post-emergence, 240 h, 125 g ai/ha, postemergence, visual injury vs untreated controls after approx. 10 d, 0 = no effect, 100 = complete control, read-out: Pigweed plant response rating (0 to 100 scale)) was 0% and the plant injury at 125 g/ha (corn (Zea mays); Zea mays, post-emergence, 240 h, 125 g ai/ha, postemergence, visual injury vs untreated controls after approx. 10 d, 0 = no effect, 100 = complete control, read-out: Corn plant response rating (0 to 100 scale)) was 0%. The Corn plant response rating (crop injury, 0 = no effect, 100 = complete kill) at 31 g/ha (corn (Zea mays); Zea mays, post-emergence, 240 h, Postemergence, 31 g ai/ha, visual injury after approx. 10 d, 0 to 100 scale, 0 no effect, 100 complete control) was 0%, the pest or weed control at 31 g/ha ([10]; Ambrosia artemisiifolia, pre-emergence, 240 h, 31 g ai/ha, Preemergence, 0 to 100 scale where 0 is no effect and 100 is complete control, read-out: Ragweed plant response rating) was 0% and the pest or weed control at 125 g/ha ([10]; Ambrosia artemisiifolia, pre-emergence, 240 h, 125 g ai/ha, preemergence, 0 to 100 scale where 0 is no effect and 100 is complete control, approx. 10 d, read-out: Ragweed plant response rating) was 0%. It also gave a pest or weed control at 31 g/ha ([11]; Echinochloa crus-galli, pre-emergence, 240 h, 31 g ai/ha, Preemergence, 0 to 100 scale where 0 is no effect and 100 is complete control, read-out: Barnyardgrass plant response rating) of 0%, a pest or weed control at 125 g/ha ([11]; Echinochloa crus-galli, pre-emergence, 240 h, 125 g ai/ha, preemergence, 0 to 100 scale where 0 is no effect and 100 is complete control, approx. 10 d, read-out: Barnyardgrass plant response rating) of 0% and a pest or weed control at 31 g/ha (Kochia (Kochia scoparia) [12]; Bassia scoparia, pre-emergence, 240 h, 31 g ai/ha, Preemergence, 0 to 100 scale where 0 is no effect and 100 is complete control, read-out: Kochia plant response rating) of 0%. It also gave a pest or weed control at 125 g/ha (Kochia (Kochia scoparia) [12]; Bassia scoparia, pre-emergence, 240 h, 125 g ai/ha, preemergence, 0 to 100 scale where 0 is no effect and 100 is complete control, approx. 10 d, read-out: Kochia plant response rating) of 0%, a pest or weed control at 31 g/ha ([13]; Lolium multiflorum, pre-emergence, 240 h, 31 g ai/ha, Preemergence, 0 to 100 scale where 0 is no effect and 100 is complete control, read-out: Ryegrass, Italian plant response rating) of 0% and a pest or weed control at 125 g/ha ([13]; Lolium multiflorum, pre-emergence, 240 h, 125 g ai/ha, preemergence, 0 to 100 scale where 0 is no effect and 100 is complete control, approx. 10 d, read-out: Ryegrass, Italian plant response rating) of 0%. It also gave a pest or weed control at 31 g/ha ([14]; Setaria faberi, pre-emergence, 240 h, 31 g ai/ha, Preemergence, 0 to 100 scale where 0 is no effect and 100 is complete control, read-out: Foxtail, Giant plant response rating) of 0%, a pest or weed control at 125 g/ha ([14]; Setaria faberi, pre-emergence, 240 h, 125 g ai/ha, preemergence, 0 to 100 scale where 0 is no effect and 100 is complete control, approx. 10 d, read-out: Foxtail, Giant plant response rating) of 0% and a pest or weed control at 31 g/ha ([15]; Amaranthus retroflexus, pre-emergence, 240 h, 31 g ai/ha, Preemergence, 0 to 100 scale where 0 is no effect and 100 is complete control, read-out: Pigweed plant response rating) of 0%. It also gave a pest or weed control at 125 g/ha ([15]; Amaranthus retroflexus, pre-emergence, 240 h, 125 g ai/ha, preemergence, 0 to 100 scale where 0 is no effect and 100 is complete control, approx. 10 d, read-out: Pigweed plant response rating) of 0%, a pest or weed control at 250 g/ha ([16]; Heteranthera limosa, read-out: Ducksalad plant response rating) of 0% and a pest or weed control at 250 g/ha ([17]; Cyperus difformis, read-out: Sedge, Umbrella plant response rating) of 0%. The pest or weed control at 250 g/ha (rice (Oryra sativa); Oryza sativa, read-out: Rice plant response rating) was 0% and the pest or weed control at 250 g/ha ([18]; Echinochloa crus-galli, read-out: Barnyardgrass plant response rating) was 0%.
In the case of `CN1CC(c2ccc(F)c(C(F)(F)F)c2)C(C(=O)Nc2ccccc2S(C)(=O)=O)C1=O` (centres unmarked) [Compound 612], the “Plant response rating, Galium” value [1, 19] was 30, the “Plant response rating, Galium” value [1, 20] was 50 and the “Plant response rating, Wheat” value [2, 19] was 30. The “Plant response rating, Wheat” value [2, 20] was 30, the “Plant response rating, Ragweed” value [3, 19] was 0 and the “Plant response rating, Ragweed” value [3, 20] was 20. The “Plant response rating, Blackgrass” value [4, 19] was 40, the “Plant response rating, Blackgrass” value [4, 20] was 60 and the “Plant response rating, Barnyardgrass” value [5, 19] was 70. The “Plant response rating, Barnyardgrass” value [5, 20] was 90, the “Plant response rating, Kochia” value (Kochia (Kochia scoparia) [6]; [19]) was 20 and the “Plant response rating, Kochia” value (Kochia (Kochia scoparia) [6]; [20]) was 40. The “Plant response rating, Ryegrass, Italian” value [7, 19] was 20, the “Plant response rating, Ryegrass, Italian” value [7, 20] was 70 and the “Plant response rating, Foxtail, Giant” value [8, 19] was 70. For the same molecule, the “Plant response rating, Foxtail, Giant” value [8, 20] was 90, the “Plant response rating, Pigweed” value [9, 19] was 20 and the “Plant response rating, Pigweed” value [9, 20] was 50. The “Plant response rating, Corn” value (corn (Zea mays); [19]) was 50, the “Plant response rating, Corn” value (corn (Zea mays); [20]) was 90 and the “Plant response rating, Ragweed” value [10, 21] was 50. The “Plant response rating, Ragweed” value [10, 22] was 50, the “Plant response rating, Barnyardgrass” value [11, 21] was 90 and the “Plant response rating, Barnyardgrass” value [11, 22] was 90. The “Plant response rating, Kochia” value (Kochia (Kochia scoparia) [12]; [21]) was 20, the “Plant response rating, Kochia” value (Kochia (Kochia scoparia) [12]; [22]) was 20 and the “Plant response rating, Ryegrass, Italian” value [13, 21] was 50. The “Plant response rating, Ryegrass, Italian” value [13, 22] was 70, the “Plant response rating, Foxtail, Giant” value [14, 21] was 90 and the “Plant response rating, Foxtail, Giant” value [14, 22] was 90. For the same molecule, the “Plant response rating, Pigweed” value [15, 21] was 70, the “Plant response rating, Pigweed” value [15, 22] was 70 and the “Plant response rating, Ducksalad” value ([16]; 13 to 15 d) was 100. For the same molecule, the “Plant response rating, Sedge, Umbrella” value ([17]; 13 to 15 d) was 85, the “Plant response rating, Rice” value (rice (Oryra sativa); 13 to 15 d) was 15 and the “Plant response rating, Barnyardgrass” value ([18]; 13 to 15 d) was 65.
